Experimental data reported in PubChem BioAssay AID2060605 (Molecular Pharmacology Branch, DTP, NCI, 2025).

Test system: 947758-054-R-J2-PDC spheroid growth, percent test/control
Assay: Anticancer human tumor 947758-054-R-J2-PDC patient-derived colon adenocarcinoma cell line growth inhibition [CLK]
Details: spheroids with HUVEC and MSC; for IC50: curve of first compound; for viability, T/C: stronger effect = lower value; active means viability on the fitted dose curve at most 10% of control; inactive means the rest
How it was run: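 Multi-cell-type spheroids combined patient-derived tumor cells with HUVEC endothelial cells and human mesenchymal stem cells. Paired agents were dosed in half-log steps down from about clinical Cmax, or from 10 microM where Cmax was unknown.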

[1] = second compound 0.0316 µM, first compound 0.0316 µM
[2] = second compound 0.0316 µM, first compound 0.1 µM
[3] = second compound 0.0316 µM, first compound 0.316 µM
[4] = second compound 0.0316 µM, first compound 1 µM
[5] = second compound 0.0316 µM, first compound 3.16 µM
[6] = second compound 0.0316 µM, first compound 10 µM
[7] = second compound 0.1 µM, first compound 0.0316 µM
[8] = second compound 0.1 µM, first compound 0.1 µM
[9] = second compound 0.1 µM, first compound 0.316 µM
[10] = second compound 0.1 µM, first compound 1 µM
[11] = second compound 0.1 µM, first compound 3.16 µM
[12] = second compound 0.1 µM, first compound 10 µM
[13] = second compound 0.316 µM, first compound 0.0316 µM
[14] = second compound 0.316 µM, first compound 0.1 µM
[15] = second compound 0.316 µM, first compound 0.316 µM
[16] = second compound 0.316 µM, first compound 1 µM
[17] = second compound 0.316 µM, first compound 3.16 µM
[18] = second compound 0.316 µM, first compound 10 µM
[19] = second compound 1 µM, first compound 0.0316 µM
[20] = second compound 1 µM, first compound 0.1 µM
[21] = second compound 1 µM, first compound 0.316 µM
[22] = second compound 1 µM, first compound 1 µM
[23] = second compound 1 µM, first compound 3.16 µM
[24] = second compound 1 µM, first compound 10 µM
[25] = second compound 3.16 µM, first compound 0.0316 µM
[26] = second compound 3.16 µM, first compound 0.1 µM
[27] = second compound 3.16 µM, first compound 0.316 µM
[28] = second compound 3.16 µM, first compound 1 µM
[29] = second compound 3.16 µM, first compound 3.16 µM
[30] = second compound 3.16 µM, first compound 10 µM
[31] = second compound 10 µM, first compound 0.0316 µM
[32] = second compound 10 µM, first compound 0.1 µM
[33] = second compound 10 µM, first compound 0.316 µM
[34] = second compound 10 µM, first compound 1 µM
[35] = second compound 10 µM, first compound 3.16 µM
[36] = second compound 10 µM, first compound 10 µM
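Further: spheroids exposed to compounds for one week before readout.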
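Wherever viability, T/C is given: 100% = DMSO vehicle control wells.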

CC1COCCN1c1cc(C2(S(C)(=N)=O)CC2)nc(-c2ccnc3[nH]ccc23)n1 (stereo unspecified) + CN1CCN(c2cc(C(=O)Nc3cc4cc(-c5cnn(C)c5)ccc4cn3)ccn2)CC1
8190 nM: IC50 (second compound 0.0316 µM)
inactive: viability, T/C [1] 129% | viability, T/C [2] 130% | viability, T/C [3] 147% | viability, T/C [4] 208% | viability, T/C [5] 174% | viability, T/C [6] 27.1% | viability, T/C [7] 156% | viability, T/C [8] 161% | viability, T/C [9] 134% | viability, T/C [10] 111% | viability, T/C [11] 59.6% | viability, T/C [12] 20.6%
< 31.6 nM: IC50 (second compound 0.316 µM) | IC50 (second compound 1 µM) | IC50 (second compound 3.16 µM) | IC50 (second compound 10 µM)
4290 nM: IC50 (second compound 0.1 µM)
active: viability, T/C [13] 4.56% | viability, T/C [14] 7.68% | viability, T/C [15] 5.32% | viability, T/C [16] 4.07% | viability, T/C [17] 7.49% | viability, T/C [18] 2.19% | viability, T/C [19] 0.17% | viability, T/C [20] 0.18% | viability, T/C [21] 0.17% | viability, T/C [22] 2.01% | viability, T/C [23] 2.61% | viability, T/C [24] 0.13% | viability, T/C [25] 0.74% | viability, T/C [26] 0.2% | viability, T/C [27] 0.39% | viability, T/C [28] 1.46% | viability, T/C [29] 1.04% | viability, T/C [30] 0.96% | viability, T/C [31] 1.2% | viability, T/C [32] 0.28% | viability, T/C [33] 1.41% | viability, T/C [34] 1.13% | viability, T/C [35] 1.09% | viability, T/C [36] 0.51%

COc1cccc2c1C(=O)c1c(O)c3c(c(O)c1C2=O)CC(O)(C(=O)CO)CC3OC1CC(N)C(O)C(C)O1 (stereo unspecified) + CNC(=O)c1ccc(Nc2nc(OC3CCCC3)c3c(-c4ccc5nc(C)oc5c4)c[nH]c3n2)c(OC)c1
68.2 nM: IC50 (second compound 0.0316 µM)
< 31.6 nM: IC50 (second compound 0.316 µM) | IC50 (second compound 1 µM) | IC50 (second compound 3.16 µM) | IC50 (second compound 10 µM)
active: viability, T/C [5] 0.41% | viability, T/C [6] 6.15% | viability, T/C [10] 4.38% | viability, T/C [11] 0.29% | viability, T/C [12] 4.57% | viability, T/C [16] 2.1% | viability, T/C [17] 0.25% | viability, T/C [18] 5.74% | viability, T/C [21] 5.4% | viability, T/C [22] 0.36% | viability, T/C [23] 0.24% | viability, T/C [24] 6.92% | viability, T/C [27] 5.36% | viability, T/C [28] 0.27% | viability, T/C [29] 0.27% | viability, T/C [30] 9.95% | viability, T/C [33] 4.23% | viability, T/C [34] 0.21% | viability, T/C [35] 1% | viability, T/C [36] 12.1%
42.3 nM: IC50 (second compound 0.1 µM)
inactive: viability, T/C [1] 59% | viability, T/C [2] 41.9% | viability, T/C [3] 32.6% | viability, T/C [4] 8.58% | viability, T/C [7] 52.9% | viability, T/C [8] 42.3% | viability, T/C [9] 23.6% | viability, T/C [13] 45.4% | viability, T/C [14] 32.1% | viability, T/C [15] 12.9% | viability, T/C [19] 28.7% | viability, T/C [20] 22.5% | viability, T/C [25] 28.1% | viability, T/C [26] 15.5% | viability, T/C [31] 23.3% | viability, T/C [32] 20.3%

COc1c(OCCCN2CCOCC2)ccc2c3n(c(=NC(=O)c4cnc(N)nc4)nc12)CCN3 + CNC(=O)c1ccc(Nc2nc(OC3CCCC3)c3c(-c4ccc5nc(C)oc5c4)c[nH]c3n2)c(OC)c1
7.81 nM: IC50 (second compound 0.316 µM)
active: viability, T/C [15] 8.06% | viability, T/C [16] 3.94% | viability, T/C [20] 4.35% | viability, T/C [21] 3.7% | viability, T/C [22] 2.28% | viability, T/C [25] 9.11% | viability, T/C [26] 3.98% | viability, T/C [27] 3.84% | viability, T/C [28] 2.88% | viability, T/C [31] 8.44% | viability, T/C [32] 4.43% | viability, T/C [33] 2.95% | viability, T/C [34] 2.09%
14.7 nM: IC50 (second compound 0.1 µM)
< 3.16 nM: IC50 (second compound 1 µM) | IC50 (second compound 3.16 µM) | IC50 (second compound 10 µM)
inactive: viability, T/C (second compound 0.0316 µM, first compound 0.00316 µM) 77% | viability, T/C (second compound 0.0316 µM, first compound 0.01 µM) 53.6% | viability, T/C [1] 39.2% | viability, T/C [2] 37.2% | viability, T/C [3] 25.1% | viability, T/C [4] 13.4% | viability, T/C (second compound 0.1 µM, first compound 0.00316 µM) 69.9% | viability, T/C (second compound 0.1 µM, first compound 0.01 µM) 60.6% | viability, T/C [7] 30.2% | viability, T/C [8] 22.2% | viability, T/C [9] 14.9% | viability, T/C [10] 10.6% | viability, T/C (second compound 0.316 µM, first compound 0.00316 µM) 71.4% | viability, T/C (second compound 0.316 µM, first compound 0.01 µM) 44.6% | viability, T/C [13] 21.1% | viability, T/C [14] 11.8% | viability, T/C (second compound 1 µM, first compound 0.00316 µM) 49.8% | viability, T/C (second compound 1 µM, first compound 0.01 µM) 30.4% | viability, T/C [19] 10.1% | viability, T/C (second compound 3.16 µM, first compound 0.00316 µM) 43.2% | viability, T/C (second compound 3.16 µM, first compound 0.01 µM) 17.7% | viability, T/C (second compound 10 µM, first compound 0.00316 µM) 25.4% | viability, T/C (second compound 10 µM, first compound 0.01 µM) 15.1%
18.1 nM: IC50 (second compound 0.0316 µM)
